Experimental data as given in paper PMC4610302 (Journal of Medicinal Chemistry, 2015).

Experiments:
[1] = test system: OTUB2 gene in cells with only ERα; details: MCF-7 cells with only ERα, qPCR, 24 h
[2] = target: purified full-length human ERβ (Homo sapiens, UniProt Q92731); test: biochemical
[3] = target: hERβ (Homo sapiens, UniProt Q92731); details: HEC-1 reporter assay

| Ki [2] | Reduction in potency on ERβ compared to 2a [3] | Compound | Stimulation of OTUB2 in cells with only ERα [1] |
| --- | --- | --- | --- |
| 1.1 nM |  | C/C(=N\O)c1cc(-c2ccc(O)cc2)ccc1O [2a, (E)-1-(6-Hydroxy-3-(4-hydroxyphenyl)phenyl)ethanone Oxime] | no stimulation |
|  | ~4 fold | C/C(=N\O)c1cc(-c2ccc(O)c(F)c2)ccc1O [2c, (E)-1-(6-Hydroxy-3-(3-fluoro-4-hydroxyphenyl)phenyl)ethanone Oxime] | no stimulation |
